Laboratory results published in the supplement of paper PMC10307832.

Legend:
Assay in all cases: relative viability (nuclei count vs DMSO), 5 days (fraction); higher = more cells survive
[1] = compound: CC1(C)CCC(CN2CCN(c3ccc(C(=O)NS(=O)(=O)c4ccc(NCC5CCOCC5)c([N+](=O)[O-])c4)c(Oc4cnc5[nH]ccc5c4)c3)CC2)=C(c2ccc(Cl)cc2)C1 [Venetoclax] + Nc1ncn([C@H]2C[C@H](O)[C@@H](CO)O2)c(=O)n1 [Decitabine] (partner 2 µM)
In short: (§1)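 Medians of duplicate plates are given as relative viability. That measure is the nuclei count in treated wells divided by the count in vehicle wells. Counts were taken on 4× images of lung cancer cell lines in 1536-well plates, 5 days after pin-tool dosing the day after seeding with one drug alone or a fixed anchor-drug dose plus five library-drug doses (not always all listed) in √10 steps.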

[2] = compound: CC1(C)CCC(CN2CCN(c3ccc(C(=O)NS(=O)(=O)c4ccc(NCC5CCOCC5)c([N+](=O)[O-])c4)c(Oc4cnc5[nH]ccc5c4)c3)CC2)=C(c2ccc(Cl)cc2)C1 [Venetoclax] + O=C(CCCCCCC(=O)Nc1ccccc1)NO [Vorinostat] (partner 1 µM)
In short: as §1

[3] = compound: Cn1cnc2c(F)c(Nc3ccc(Br)cc3Cl)c(C(=O)NOCCO)cc21 [Selumetinib] + CS(=O)(=O)CCNCc1ccc(-c2ccc3ncnc(Nc4ccc(OCc5cccc(F)c5)c(Cl)c4)c3c2)o1 [Lapatinib] (partner 2 µM)
In short: as §1

[4] = compound: Cn1cnc2c(F)c(Nc3ccc(Br)cc3Cl)c(C(=O)NOCCO)cc21 [Selumetinib] + Cc1nc(NC(=O)N2CCC[C@H]2C(N)=O)sc1-c1ccnc(C(C)(C)C(F)(F)F)c1 [Alpelisib] (partner 2 µM)
In short: as §1

Cell Line	relative viability ([1]; first compound 0.01 µM)	relative viability ([1]; first compound 0.03162 µM)	relative viability ([1]; first compound 0.1 µM)	relative viability ([1]; first compound 0.3162 µM)	relative viability ([1]; first compound 1 µM)	relative viability ([2]; first compound 0.01 µM)	relative viability ([2]; first compound 0.03162 µM)	relative viability ([2]; first compound 0.1 µM)	relative viability ([2]; first compound 0.3162 µM)	relative viability ([2]; first compound 1 µM)	relative viability ([3]; first compound 0.02 µM)	relative viability ([3]; first compound 0.06325 µM)	relative viability ([3]; first compound 0.2 µM)	relative viability ([3]; first compound 0.6325 µM)	relative viability ([4]; first compound 0.02 µM)	relative viability ([4]; first compound 0.06325 µM)	relative viability ([4]; first compound 0.2 µM)	relative viability ([4]; first compound 0.6325 µM)
HCC-827	0.303	0.418	0.34	0.249	0.346	0.848	0.958	0.83	0.892	0.755	0.175	0.182	0.187	0.18	0.961	0.786	0.863	0.791
HOP-62	0.182	0.203	0.199	0.216	0.218	0.578	0.572	0.552	0.667	0.568	1.08	0.86	0.732	0.636	0.86	0.962	0.965	0.465
IA-LM						0.673	1.01	0.8	0.958	1	0.395	0.182	0.111	0.108	0.431	0.237	0.216	0.191
LC-2-ad	0.858	0.778	0.785	0.78	0.765	0.721	0.729	0.641	0.69	0.686	0.91	0.879	0.736	0.842	0.862	0.82	0.66	0.848
LCLC-97TM1	0.242	0.236	0.238	0.204	0.222	0.453	0.892	0.443	0.635	0.667	1.05	0.985	0.86	0.481	0.275	0.25	0.259	0.185
LCLC-103H	0.767	0.713	0.733	0.752	0.788	0.866	0.92	0.648	0.825	0.737					0.851	0.917	0.841	0.874
LK-2	0.204	0.359	0.305	0.231	0.294	0.214	0.38	0.304	0.278	0.248	1.16	0.852	0.848	0.924	1.01	1.13	0.949	0.985
LOU-NH91	0.76	0.808	0.816	0.821	0.778	0.868	1.05	0.916	1.03	0.874	0.759	0.707	0.758	0.766	0.648	0.6	0.577	0.586
LU99A	0.758	0.957	0.831	0.803	0.858	0.595	0.703	0.416	0.521	0.552	1.05	1	1.02	0.963	0.551	0.501	0.489	0.573
